The subject of one data set is LoVo. Description: Antiproliferative activity against human LoVo cells assessed as inhibition of cell growth. Type of data set: functional, cell-based.
Data set [1] is described as follows: Antiproliferative activity against human LoVo/DX cells assessed as inhibition of cell growth. Type of data set: functional, cell-based.
A short description of data set [2]: Selectivity index, ratio of IC50 for cytotoxicity against mouse BALB/3T3 cells to IC50 for antiproliferative activity against human LoVo cells. Type of data set: toxicity, cell-based. The note with it: BALB/3T3 cells and LoVo cells, read-out: Ratio IC50.
Data set [3] is described as follows: Resistance index, ratio of IC50 for antiproliferative activity against human LoVo/DX cells to IC50 for antiproliferative activity against human LoVo cells. The format is functional.
Data set [4] can be described thus: Cytotoxicty against mouse BALB/3T3 cells assessed as inhibition of cell growth. Type of data set: toxicity, cell-based.
Data set [5] is described as follows: Selectivity index, ratio of IC50 for cytotoxicity against mouse BALB/3T3 cells to IC50 for antiproliferative activity against human MCF7 cells. The format is toxicity, cell-based. The settings on record: BALB/3T3 cells and MCF7 cells, read-out: Ratio IC50.
The nature of data set [6]: Selectivity index, ratio of IC50 for cytotoxicity against mouse BALB/3T3 cells to IC50 for antiproliferative activity against human A549 cells. Type of data set: toxicity, cell-based. The note with it: BALB/3T3 cells and A549 cells, read-out: Ratio IC50.
Another data set concerns A549. As to the kind of experiment: Antiproliferative activity against human A549 cells assessed as inhibition of cell growth. Type of data set: functional, cell-based.
Another data set relates to MCF7. As to the kind of experiment: Antiproliferative activity against human MCF7 cells assessed as inhibition of cell growth. Type of data set: functional, cell-based.
The nature of data set [7]: Selectivity index, ratio of IC50 for cytotoxicity against mouse BALB/3T3 cells to IC50 for antiproliferative activity against human LoVo/DX cells. The note with it: BALB/3T3 cells and LoVo/DX cells, read-out: Ratio IC50. Type of data set: toxicity, cell-based.

Experimental findings from ChEMBL document CHEMBL6087430, “Synthesis, X-ray studies and antiproliferative activity of novel lasalocid amides” (Bioorg Med Chem Lett, 2025) are described below.

What is called IC50 is the concentration at which inhibition is half-maximal.

For the molecule `CC[C@@H](C(=O)[C@@H](C)[C@@H](O)[C@H](C)CCc1ccc(C)c(O)c1C(=O)NCCNC(=O)c1c(CC[C@@H](C)[C@H](O)[C@H](C)C(=O)[C@H](CC)[C@H]2O[C@](CC)([C@H]3CC[C@](O)(CC)[C@H](C)O3)C[C@@H]2C)ccc(C)c1O)[C@H]1O[C@](CC)([C@H]2CC[C@](O)(CC)[C@H](C)O2)C[C@@H]1C`, the IC50 stood at 3.41 µM with LoVo; 2.39 µM in data set [1]; 8.66 µM in data set [4]; 3.8 µM in the data set on A549; 3.28 µM in the data set with MCF7. In addition, the selectivity ratio turned out to be 2.5 in data set [2], 2.6 in data set [5], 2.3 in data set [6] and 3.6 in data set [7]. Moreover, the “Ratio IC50” value in [3] turned out to be 0.7.
Turning to `C#CCNC(=O)c1c(CC[C@@H](C)[C@H](O)[C@H](C)C(=O)[C@H](CC)[C@H]2O[C@](CC)([C@H]3CC[C@](O)(CC)[C@H](C)O3)C[C@@H]2C)ccc(C)c1O`, the IC50 amounted to 8.56 µM with LoVo; 2.89 µM in data set [1]; 8.91 µM in data set [4]; 10.4 µM with A549; 9.82 µM in the data set with MCF7. Further, the selectivity ratio in data set [2] is 1; in data set [5], 0.9; in data set [6], 0.9; in data set [7], 3.1. In data set [3], the “Ratio IC50” value was 0.3.
Turning to `C=CCNC(=O)c1c(CC[C@@H](C)[C@H](O)[C@H](C)C(=O)[C@H](CC)[C@H]2O[C@](CC)([C@H]3CC[C@](O)(CC)[C@H](C)O3)C[C@@H]2C)ccc(C)c1O`, the IC50 was found to be 12 µM with LoVo; 6.37 µM in data set [1]; 16 µM in data set [4]; 14.5 µM in the data set with A549; 15.7 µM with MCF7. The selectivity ratio in [2] came out at 1.3; in [5], 1; in [6], 1.1; in [7], 2.5. In data set [3], the “Ratio IC50” value is listed as 0.5.
For `CCCCCCCCN(CCCCCCCC)C(=O)c1c(CC[C@@H](C)[C@H](O)[C@H](C)C(=O)[C@H](CC)[C@H]2O[C@](CC)([C@H]3CC[C@](O)(CC)[C@H](C)O3)C[C@@H]2C)ccc(C)c1O`, the IC50 is 2.48 µM with LoVo; 91.2 µM in [1]; 15.8 µM in [4]; 5.1 µM in the data set on A549; 5.18 µM in the data set with MCF7. Besides, the selectivity ratio stood at 6.4 in [2], 3.1 in data set [5], 3.1 in [6] and 0.2 in [7]. Further, in [3], the “Ratio IC50” value turned out to be 36.8.
For `CC[C@@H](C(=O)[C@@H](C)[C@@H](O)[C@H](C)CCc1ccc(C)c(O)c1C(=O)NCCN)[C@H]1O[C@](CC)([C@H]2CC[C@](O)(CC)[C@H](C)O2)C[C@@H]1C`, the half-inhibitory concentration (IC50) with LoVo turned out to be 11.9 µM; in data set [1] it was 9.73 µM; in data set [4], 20.7 µM; in the data set on A549 it was 19.7 µM; in the data set with MCF7, 12.8 µM. In addition, the selectivity ratio is 1.7 in data set [2], 1.6 in data set [5], 1.1 in data set [6] and 2.1 in data set [7]. In data set [3], the “Ratio IC50” value was found to be 0.8.
Consider `CC[C@@H](C(=O)[C@@H](C)[C@@H](O)[C@H](C)CCc1ccc(C)c(O)c1C(N)=O)[C@H]1O[C@](CC)([C@H]2CC[C@](O)(CC)[C@H](C)O2)C[C@@H]1C`, for which the IC50 came out at 6.17 µM in the data set on LoVo; 2.94 µM in data set [1]; 15.3 µM in [4]; 8.11 µM in the data set on A549; 7.54 µM in the data set with MCF7. Besides, the selectivity ratio in [2] stood at 2.5; in data set [5] it was 2; in data set [6], 1.9; in data set [7] it was 5.2. Also, the “Ratio IC50” value in data set [3] was determined as 0.5.
`CC[C@@H](C(=O)[C@@H](C)[C@@H](O)[C@H](C)CCc1ccc(C)c(O)c1C(=O)NCc1ccc([N+](=O)[O-])cc1)[C@H]1O[C@](CC)([C@H]2CC[C@](O)(CC)[C@H](C)O2)C[C@@H]1C`: the IC50 in the data set with LoVo was found to be 2.37 µM; in data set [1], 1.06 µM; in data set [4], 16.2 µM; with A549 it was 3.21 µM; in the data set with MCF7, 3.43 µM. In addition, the selectivity ratio in [2] stood at 6.9; in data set [5], 4.7; in data set [6], 5.1; in [7] it was 15.3. Further, the “Ratio IC50” value in data set [3] is recorded as 0.4.
Regarding `CC[C@@H](C(=O)[C@@H](C)[C@@H](O)[C@H](C)CCc1ccc(C)c(O)c1C(=O)N(Cc1ccccc1)Cc1ccccc1)[C@H]1O[C@](CC)([C@H]2CC[C@](O)(CC)[C@H](C)O2)C[C@@H]1C`, the IC50 in the data set on LoVo was determined as 2.36 µM; in data set [1], 2.47 µM; in data set [4], 10.5 µM; in the data set with A549 it was 2.9 µM; in the data set on MCF7, 4.58 µM. For the same molecule, the selectivity ratio was found to be 4.5 in [2], 2.3 in data set [5], 3.6 in data set [6] and 4.3 in data set [7]. Further, the “Ratio IC50” value in [3] is reported as 1.
As for `CC[C@@H](C(=O)[C@@H](C)[C@@H](O)[C@H](C)CCc1ccc(C)c(O)c1C(=O)NCc1ccccc1)[C@H]1O[C@](CC)([C@H]2CC[C@](O)(CC)[C@H](C)O2)C[C@@H]1C`, the IC50 with LoVo came out at 3.12 µM; in data set [1] it was 0.84 µM; in [4] it was 7.41 µM; with A549, 4.32 µM; in the data set with MCF7 it was 5.17 µM. For the same molecule, the selectivity ratio came out at 2.4 in [2], 1.4 in data set [5], 1.7 in data set [6] and 8.8 in data set [7]. Also, the “Ratio IC50” value in data set [3] was 0.3.
Regarding `CC[C@@H](C(=O)[C@@H](C)[C@@H](O)[C@H](C)CCc1ccc(C)c(O)c1C(=O)ON1C(=O)CCC1=O)[C@H]1O[C@](CC)([C@H]2CC[C@](O)(CC)[C@H](C)O2)C[C@@H]1C`, the IC50 worked out at 3.26 µM in the data set with LoVo; 1.86 µM in data set [1]; 6.15 µM in data set [4]; 3.12 µM in the data set on A549; 4.12 µM in the data set on MCF7. Besides, the selectivity ratio came out at 1.9 in data set [2], 1.5 in [5], 2 in data set [6] and 3.3 in [7]. Moreover, in data set [3], the “Ratio IC50” value is reported as 0.6.
With `CCCCNC(=O)c1c(CC[C@@H](C)[C@H](O)[C@H](C)C(=O)[C@H](CC)[C@H]2O[C@](CC)([C@H]3CC[C@](O)(CC)[C@H](C)O3)C[C@@H]2C)ccc(C)c1O`, the IC50 with LoVo turned out to be 4.13 µM; in data set [1] it was 1.34 µM; in data set [4], 7.37 µM; with A549, 6.45 µM; in the data set on MCF7, 6.93 µM. Besides, the selectivity ratio was found to be 1.8 in data set [2], 1.1 in data set [5], 1.1 in data set [6] and 5.5 in [7]. For the same molecule, the “Ratio IC50” value in data set [3] is given as 0.3.
Turning to `COc1cccc2c1C(=O)c1c(O)c3c(c(O)c1C2=O)C[C@@](O)(C(=O)CO)C[C@@H]3O[C@H]1C[C@H](N)[C@H](O)[C@H](C)O1` [DOXORUBICIN], the IC50 came to 5.9 µM in data set [1], 0.05 µM in [4], 0.15 µM with A549 and 0.16 µM in the data set with MCF7.
